For 10 compounds, IC50 results are on record in patent publication US8933103B2, “Pyridone derivatives” (Daiichi Sankyo Company, Limited, priority 2012, dated 2015).

By IC50 is commonly meant the concentration at which inhibition is half-maximal.

This assay addresses T1, AXL (fusion protein of amino acids 464-885 of the intracellular domain of human AXL with glutathione transferase) (Homo sapiens, UniProt P30530).
T1 sequence (P30530 464-885 isoform P30530-2): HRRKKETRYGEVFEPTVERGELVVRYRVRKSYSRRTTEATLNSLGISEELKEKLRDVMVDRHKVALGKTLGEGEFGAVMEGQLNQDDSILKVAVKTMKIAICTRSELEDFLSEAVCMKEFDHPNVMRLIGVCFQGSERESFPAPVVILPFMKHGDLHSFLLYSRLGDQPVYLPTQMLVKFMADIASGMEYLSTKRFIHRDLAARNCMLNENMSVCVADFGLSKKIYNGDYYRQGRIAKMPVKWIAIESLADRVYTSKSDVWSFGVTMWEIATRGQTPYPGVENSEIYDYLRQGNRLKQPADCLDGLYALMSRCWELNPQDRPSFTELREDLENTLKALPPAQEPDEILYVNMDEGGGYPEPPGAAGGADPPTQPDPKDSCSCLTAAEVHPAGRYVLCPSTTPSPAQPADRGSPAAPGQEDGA
Nature of the assay: Cell-Free Axl Kinase Inhibitory Activity.
Experimental: Next, the test compound was diluted with DMSO, and 1 μl of this diluted solution was added to each well.
Five microliters of this solution were added to each well to initiate a kinase reaction. The plate was incubated at 28° C. for 1.5 hours, and 40 μl of a termination buffer (100 mM HEPES (pH 7.4), 0.015% Brij-35, 40 mM EDTA, 0.1% Coating Reagent 3) was added to each well to terminate the reaction.
The substrate peptide and the phosphorylated peptide in the reaction solution were separated and quantified by EZ Reader II (Caliper Life Sciences).
IC50 was determined from inhibition data for 12 test compound concentrations by nonlinear regression (four-parameter logistic regression) using the following formula.
Turning to `COc1ccc(-c2cnc(N)c(-c3ccc(NC(=O)c4cn(C(C)C)cc(-c5ccc(F)cc5)c4=O)cc3)c2)cc1OC` [Example 4, N-{4-[2-Amino-5-(3,4-dimethoxyphenyl)pyridin-3-yl]phenyl}-5-(4-fluorophenyl)-4-oxo-1-(propan-2-yl)-1,4-dihydropyridine-3-carboxamide], the IC50 is 1 to 10 nM.

Turning to `CCOCCn1cc(C(=O)Nc2ccc(-c3cc(-c4cnn(C[C@H]5COCCO5)c4)cnc3N)cc2)c(=O)c(-c2ccc(F)cc2)c1` [Example 67, N-[4-(2-Amino-5-{1-[(2S)-1,4-dioxan-2-ylmethyl]-1H-pyrazol-4-yl}pyridin-3-yl)phenyl]-1-(2-ethoxyethyl)-5-(4-fluorophenyl)-4-oxo-1,4-dihydropyridine-3-carboxamide], the IC50 lay within 1 to 10 nM.

In the case of `CN(C)C(=O)c1cn(Cc2ccc(F)cc2)cc(C(=O)Nc2ccc(-c3cc(-c4cnn(C)c4)cnc3N)cc2)c1=O` [Example 60, N′-{4-[2-Amino-5-(1-methyl-1H-pyrazol-4-yl)pyridin-3-yl]phenyl}-1-(4-fluorobenzyl)-N,N-dimethyl-4-oxo-1,4-dihydropyridine-3,5-dicarboxamide], the IC50 was in the range of 1 to 10 nM.

`CCn1cc(C(=O)Nc2ccc(-c3cc(-c4cnn(C[C@H]5COCCO5)c4)cnc3N)cc2)c(=O)c(-c2ccc(F)cc2)c1` [Example 64, N-[4-(2-Amino-5-{1-[(2S)-1,4-dioxan-2-ylmethyl]-1H-pyrazol-4-yl}pyridin-3-yl)phenyl]-1-ethyl-5-(4-fluorophenyl)-4-oxo-1,4-dihydropyridine-3-carboxamide] displayed an IC50 of 0.1 to 1 nM.

For the compound `Cn1cc(-c2cnc(N)c(-c3ccc(NC(=O)c4cn(CCF)cc(-c5ccccc5)c4=O)cc3)c2)cn1` [Example 53, N-{4-[2-Amino-5-(1-methyl-1H-pyrazol-4-yl)pyridin-3-yl]phenyl}-1-(2-fluoroethyl)-4-oxo-5-phenyl-1,4-dihydropyridine-3-carboxamide], the half-maximal inhibitory concentration (IC50) was 1 to 10 nM.

For `COc1ccc(-c2cnc(N)c(-c3ccc(NC(=O)c4cn(Cc5ccc(F)cc5)cc(-c5nnc(C)o5)c4=O)cc3)c2)cc1OC` [Example 28, N-{4-[2-Amino-5-(3,4-dimethoxyphenyl)pyridin-3-yl]phenyl}-1-(4-fluorobenzyl)-5-(5-methyl-1,3,4-oxadiazol-2-yl)-4-oxo-1,4-dihydropyridine-3-carboxamide], the IC50 lay within 0.1 to 1 nM.

`COc1ccnc(N)c1-c1ccc(NC(=O)c2cn(CC(F)(F)F)cc(-c3ccc(F)cc3)c2=O)cc1F` [Example 85, N-[4-(2-Amino-4-methoxypyridin-3-yl)-3-fluorophenyl]-5-(4-fluorophenyl)-4-oxo-1-(2,2,2-trifluoroethyl)-1,4-dihydropyridine-3-carboxamide] showed an IC50 of 0.1 to 1 nM.

In turn, `Cn1cc(-c2cnc(N)c(-c3ccc(NC(=O)c4cn(Cc5ccccc5)cc(-c5ccc(F)cc5)c4=O)cc3)c2)cn1` [Example 51, N-{4-[2-Amino-5-(1-methyl-1H-pyrazol-4-yl)pyridin-3-yl]phenyl}-1-benzyl-5-(4-fluorophenyl)-4-oxo-1,4-dihydropyridine-3-carboxamide] had an IC50 of 0.1 to 1 nM.

Take `COc1ccc(-c2cnc(N)c(-c3ccc(NC(=O)c4cn(Cc5ccncc5)cc(-c5ccc(F)cc5)c4=O)cc3)c2)cc1OC` [Example 13, N-{4-[2-Amino-5-(3,4-dimethoxyphenyl)pyridin-3-yl]phenyl}-5-(4-fluorophenyl)-4-oxo-1-(pyridin-4-ylmethyl)-1,4-dihydropyridine-3-carboxamide]: the IC50 is 0.1 to 1 nM.

As to `COc1ccc(-c2cnc(N)c(-c3ccc(NC(=O)c4cn(CC(F)(F)F)cc(-c5ccc(F)cc5)c4=O)cc3)c2)cc1O` [Example 88, N-{4-[2-Amino-5-(3-hydroxy-4-methoxyphenyl)pyridin-3-yl]phenyl}-5-(4-fluorophenyl)-4-oxo-1-(2,2,2-trifluoroethyl)-1,4-dihydropyridine-3-carboxamide], the IC50 was 1 to 10 nM.
